The values that follow come from paper PMC7785802, “Therapeutic Efficacy of a Trichinella Spiralis Paramyosin-Derived Peptide Modified With a Membrane-Targeting Signal in Mice With Antigen-Induced Arthritis” (Frontiers in Microbiology, 2020).

Entries after “also recorded” stand apart in the source; their conditions may differ.

One assay relates to human complement C9. Description: Microscale thermophoresis (MST) binding to human C9. The note with it: for binding to human C9: NT-647-labeled human C9 1.5 μM, peptides diluted from 1.68 to 0 mM, distilled water with 0.05% Tween 20, 10 min room temperature, three independent measurements. On the procedure:
(§1) To assess the binding affinity of the peptides to human or mouse complement C9, a fluorescence-based biophysical technique known as MST (NanoTemper Technologies GmbH, Germany) was used. Briefly, human or mouse C9 was fluorescently labeled using a Monolith NT™ Protein Labeling Kit NT-647 (NanoTemper Technologies GmbH, Germany) based on the manufacturer's protocol. Next, the peptides were gradiently diluted in distilled water from 1.68 to 0 mM. The labeled human or mouse C9 (1.5 μM) was then incubated with various peptide concentrations for 10 min at room temperature before being loaded into K002 silica capillaries. Measurements were performed using a NanoTemper Monolith NT.115 instrument in distilled water containing 0.05% Tween 20. The data were analyzed using NanoTemper Analysis software (NanoTemper Technologies GmbH, Germany).
(§2) Figure 1 Modified peptide bound to human complement C9 and inhibited C9 polymerization-induced bio-function. (A) Microscale thermophoresis assay (NanoTemper) in which biomolecular interactions were quantitated by examining the motion of the molecules along a microscopic temperature gradient induced by an infrared laser. Changes in the molecular hydration shell, charge, or size are measured using a fluorescent probe (NT-647) bound covalently to the human C9. Binding of control, modified and original peptides to human C9 were studied. Data points indicate the differences in normalized fluorescence (%) generated by peptides binding to […], and curves indicate the calculated fits. […] Error bars represent the standard error of three independent measurements. […] Lane M: standard protein markers; lane 1: blank control (C9 without Zn^2+); lane 2: positive control (C9 with Zn^2+); lane 3: 5.24 μmol original peptide; lanes 4–6, 1.31, 2.62, and 5.24 μmol modified peptide, respectively; lane 7, 5.24 μmol control peptide. (C) Normal human serum (NHS)-induced complement-mediated hemolysis was inhibited by the modified and original peptides (2.62 and 5.24 μmol) compared to the control peptide. All experiments were performed three times and data are presented as mean ± SD. *p < 0.05, **p < 0.01.

A further assay relates to human C9. Description: Zn2+-induced human C9 polymerization assay. The assay is classed as biochemical. The note with it: for inhibition of Zn2+-induced C9 polymerization at 5.24 μmol: peptide 5.24 μmol. How it is done: Certain concentrations of C9 can polymerize when induced by certain concentrations of Zn^2+. However, the polymerization can be suppressed when C9 binds to inhibitors. C9 polymerization assays were used to evaluate the inhibitory effect of the peptides on Zn^2+-induced polymerization of human C9. Briefly, 2 μg C9 was preincubated with the peptides in 20 mM Tris buffer (pH 7.2) at 37°C for 40 min and then 50 μM Zn^2+ was added to induce C9 polymerization at 37°C for 2 h. The samples were subjected to 2.5–15% polyacrylamide gel electrophoresis to assess the inhibitory effects of the peptides on human C9 polymerization; the gels were visualized by staining with Coomassie blue.
as §2

The subject of assay [1] is complement in normal human serum (NHS); rabbit erythrocytes. Description: NHS-induced complement-mediated hemolysis of rabbit erythrocytes (alternative pathway). In kind it is cell-based. The conditions noted are these: for inhibition of NHS-induced erythrocyte lysis, concentration dependence: NHS 1:12.5, peptide 1.31, 2.62, 5.24 μmol, Mg-EGTA, 37°C 40 min, then rabbit erythrocytes 1 × 10^8, 30 min 37°C, absorbance 412 nm; for inhibition of NHS-induced erythrocyte lysis, concentration dependence / inhibition of NHS-induced hemolysis compared to control peptide: three experiments; for inhibition of NHS-induced erythrocyte lysis at 5.24 μmol: peptide 5.24 μmol, NHS 1:12.5; for inhibition of NHS-induced hemolysis compared to control peptide: peptide 2.62 and 5.24 μmol, *p < 0.05, **p < 0.01. On the procedure: Normal human serum (NHS) was collected from six healthy volunteers, and the donation procedure was approved by the Institutional Review Board (IRB) of Capital Medical University (approval number: 2016SY01). After venous blood was collected, it was clotted in serum separator tubes for 4 h at room temperature and then centrifuged at 1,000 g for 30 min to obtain the serum. The serum was divided into aliquots and stored at −80°C. To obtain normal mouse serum (NMS), blood was collected in the […] of mice under ether anesthesia and the serum was separated and stored as described above.
When rabbit erythrocytes are placed in xenogeneic serum (such as NHS or NMS), the alternative pathway of the complement system is activated, causing lysis of the rabbit erythrocytes. To evaluate the effects of the peptides on the complement activation-mediated erythrocyte lysis (involving the alternative complement pathway), NHS or NMS (1:12.5) was incubated with various concentrations of peptides (1.31, 2.62, and 5.24 μmol) in Mg-EGTA solution (5 mM MgCl2, 10 mM EGTA) at 37°C for 40 min before adding the mixture to freshly washed erythrocytes (1 × 10^8) in gelatin veronal-buffered saline (pH 7.4, containing 0.1% gelatin) for 30 min at 37°C. Lysis was stopped with cold Hanks' Balanced Salt Solution (HBSS^++) containing 10 mM ethylenediaminetetraacetic acid (EDTA). The samples were then centrifuged at 1,000 g for 10 min to obtain the supernatant, and the amount of released hemoglobin in the supernatant was determined by measuring the absorbance at 412 nm. The hemolytic activity relative to the water-induced lysis among the same number of erythrocytes was calculated.
as §2

The subject of the next assay is recombinant mouse C9. Description: Microscale thermophoresis (MST) binding to recombinant mouse C9. The conditions noted are these: NT-647-labeled mouse C9 1.5 μM, peptides 1.68 to 0 mM, distilled water with 0.05% Tween 20, three independent measurements. On the procedure:
as §1
To evaluate whether the modified peptide can cross the species barrier to inhibit murine MAC assembly in addition to human MAC assembly and to provide a preliminary experimental basis for the in vivo mouse experiments, MST assays were used again to assess the binding ability of the peptides to recombinant mouse C9. […] To evaluate whether this binding can inhibit NMS-induced erythrocyte lysis (involving the alternative complement pathway), hemolytic assays were performed.
(A) Microscale thermophoresis assay (NanoTemper) in which biomolecular interactions are quantitated by examining the motion of the molecules along a microscopic temperature gradient induced by an infrared laser. Changes in the molecular hydration shell, charge, or size are measured using a fluorescent probe (NT-647) bound covalently to the mouse C9. Binding of control, modified and original peptides to mouse C9 were studied. […] Data points indicate the differences in normalized fluorescence (%) generated by peptides binding to mouse C9, and curves indicate the calculated fits. Error bars represent the standard error of three independent measurements. […] All experiments were performed three times and data are presented as mean ± SD. *p < 0.05, **p < 0.01.

[2] abbreviates: 2 μg C9, 50 μM Zn2+, 37°C 2 h, PAGE, Coomassie blue.

“VSMGKSLSSKVYVM [original peptide, tetradecapeptide derived from Trichinella spiralis paramyosin (Ts-pmy)]”: in the assay on human complement C9, the “binding to human C9” value is “human C9 could bind to both the original and modified peptides; also recorded: concentration-dependent binding”. Further, the “inhibition of Zn2+-induced C9 polymerization at 5.24 μmol” value in the assay on human C9 (setting [2]) is listed as “fully inhibited”. In assay [1], the “inhibition of NHS-induced erythrocyte lysis, concentration dependence” value is listed as “significantly inhibited in a dose-dependent manner”; the “inhibition of NHS-induced erythrocyte lysis at 5.24 μmol” value was “greatest inhibition”; the “inhibition of NHS-induced hemolysis compared to control peptide” value was “inhibited”. For the same substance, the “binding to recombinant mouse C9” value in the assay with recombinant mouse C9 was “could bind to the recombinant mouse C9; also recorded: concentration-dependent binding”.
On to “Myr-GSSKSPSKKKKKKPG-ACP-VSMGKSLSSKVYVM [modified peptide, Ts-pmy-derived peptide modified with a membrane-targeting signal]”, for which the “binding to human C9” value in the assay with human complement C9 was “human C9 could bind to both the original and modified peptides; also recorded: concentration-dependent binding”. Moreover, the “binding affinity to human C9 compared with original peptide” value in the assay with human complement C9 (labeled human C9 1.5 μM, peptides 1.68 to 0 mM, Kd not given) is on record as “binding affinity that was similar to that of the original peptide”. The “inhibition of Zn2+-induced C9 polymerization, concentration dependence” value with human C9 (2 μg C9, 20 mM Tris pH 7.2, 37°C 40 min preincubation, 50 μM Zn2+ 2 h, peptide 1.31, 2.62, 5.24 μmol, 2.5–15% PAGE) is “inhibited Zn^2+-induced C9 polymerization in a dose-dependent manner”. For the same substance, the “inhibition of Zn2+-induced C9 polymerization at 2.62 μmol” value with human C9 (peptide 2.62 μmol, 2 μg C9, 50 μM Zn2+, 37°C 2 h, PAGE, Coomassie blue) was “slightly”. For the same substance, the “inhibition of Zn2+-induced C9 polymerization at 5.24 μmol” value in the assay on human C9 (setting [2]) is on record as “fully inhibited; also recorded: completely”. For the same substance, in assay [1], the “inhibition of NHS-induced erythrocyte lysis, concentration dependence” value is reported as “significantly inhibited in a dose-dependent manner”; the “inhibition of NHS-induced erythrocyte lysis at 5.24 μmol” value was “greatest inhibition”; the “inhibition of NHS-induced hemolysis compared to control peptide” value was “inhibited”. Moreover, in the assay with recombinant mouse C9, the “binding to recombinant mouse C9” value is “could bind to the recombinant mouse C9; also recorded: concentration-dependent binding”.
As to “GKMSVMSVYKSVLS [control peptide, reference compound]”, the “binding to human C9” value with human complement C9 is “no binding between human C9 and the control peptide”. For the same substance, in the assay on human C9 (setting [2]), the “inhibition of Zn2+-induced C9 polymerization at 5.24 μmol” value is on record as “did not inhibit C9 polymerization”. The “inhibition of NHS-induced erythrocyte lysis, concentration dependence” value in assay [1] is on record as “no difference in the erythrocyte lysis among the three concentrations”. In addition, the “binding to recombinant mouse C9” value in the assay with recombinant mouse C9 is on record as “could not”.
